Assay results from ChEMBL document CHEMBL4020763, “N-(1H-Pyrazol-3-yl)quinazolin-4-amines as a novel class of casein kinase 1δ/ε inhibitors: Synthesis, biological evaluation and molecular modeling studies” (Bioorg Med Chem Lett, 2017).

What was measured:
ZR-75-1 [1] = assay: Cytotoxicity against human ZR-75-1 cells by MTT assay; assay type: functional, cell-based
[2] = molecular target: Cyclin-dependent kinase 5/CDK5 activator 1 (Homo sapiens) (UniProt Q00535+Q15078); assay: Inhibition of recombinant human CDK5/p25 expressed in Escherichia coli at 10 uM using histone H1 as substrate after 30 mins in presence of ATP by scintillation counting method relative to control
Asteroidea = assay: Inhibition of M-phase starfish oocytes CDK1/cyclin B at 10 uM using histone H1 as substrate after 30 mins in presence of ATP by scintillation counting method relative to control
DU-145 = assay: Growth inhibition of human DU145 cells at 100 uM by MTT assay relative to control; assay type: functional; conditions: read-out: GI
BT-20 [3] = assay: Growth inhibition of human BT20 cells at 100 uM by MTT assay relative to control; assay type: functional; conditions: read-out: GI
[4] = Growth inhibition of HEK293 cells at 100 uM by MTT assay relative to control; assay type: cell-based; conditions: human, read-out: GI
A549 [5] = assay: Cytotoxicity against human A549 cells by MTT assay; assay type: functional, cell-based
[6] = molecular target: Glycogen synthase kinase-3 (Sus scrofa) (UniProt B2LUN4+I6LNT8); assay: Inhibition of porcine brain GSK-3 alpha/beta at 10 uM using YRRAAVPPSPSLSRHSSPHQpSEDEEE as substrate after 30 mins in presence of ATP by scintillation counting method relative to control
MDA-MB-231 [7] = assay: Growth inhibition of human MDA-MB-231 cells at 100 uM by MTT assay relative to control; assay type: functional; conditions: read-out: GI
[8] = molecular target: CDK9/cyclin T1 (Homo sapiens) (UniProt O60563+P50750); assay: Inhibition of recombinant human CDK9/cyclin T expressed in insect cells at 10 uM using YSPTSPSYSPTSPSYSPTSPSKKKK as substrate after 30 mins in presence of ATP by scintillation counting method relative to control
ZR-75-30 [9] = assay: Cytotoxicity against human ZR-7530 cells by MTT assay; assay type: functional, cell-based
[10] = Inhibition of M-phase starfish oocytes CDK1/cyclin B using histone H1 as substrate after 30 mins in presence of ATP by scintillation counting method; set-up: species or system Asteroidea
BT-20 [11] = assay: Cytotoxicity against human BT20 cells by MTT assay; assay type: functional, cell-based
ZR-75-1 [12] = assay: Growth inhibition of human ZR-75-1 cells at 100 uM by MTT assay relative to control; assay type: functional; conditions: read-out: GI
CDK2/Cyclin A2 = CDK2/Cyclin A2 (Homo sapiens, UniProt P24941); assay: Inhibition of recombinant human CDK2/cyclin A using histone H1 as substrate after 30 mins in presence of ATP by scintillation counting method; assay type: protein-complex assay
ZR-75-30 [13] = assay: Growth inhibition of human ZR-7530 cells at 100 uM by MTT assay relative to control; assay type: functional; conditions: read-out: GI
[14] = molecular target: Glycogen synthase kinase-3 (Sus scrofa, UniProt B2LUN4+I6LNT8); assay: Inhibition of porcine brain GSK-3 alpha/beta using YRRAAVPPSPSLSRHSSPHQpSEDEEE as substrate after 30 mins in presence of ATP by scintillation counting method
HCT-15 [15] = assay: Growth inhibition of human HCT15 cells at 100 uM by MTT assay relative to control; assay type: functional; conditions: read-out: GI
[16] = molecular target: CDK2/Cyclin A2 (Homo sapiens) (UniProt P24941+P20248); assay: Inhibition of recombinant human CDK2/cyclin A at 10 uM using histone H1 as substrate after 30 mins in presence of ATP by scintillation counting method relative to control; assay type: protein-complex assay
[17] = molecular target: Dual specificity protein kinase CLK1 (Mus musculus, UniProt P22518); assay: Inhibition of recombinant mouse GST-fused CLK1 expressed in Escherichia coli using RS peptide as substrate after 30 mins in presence of ATP by scintillation counting method
HEK293 = assay: Cytotoxicity against HEK293 cells by MTT assay; assay type: cell-based; conditions: Homo sapiens
Sus scrofa = species on record: Sus scrofa; assay: Inhibition of porcine brain CK1-delta/epsilon at 10 uM using CSK peptide as substrate after 30 mins in presence of ATP by scintillation counting method relative to control
[18] = molecular target: Dual specificity protein kinase CLK1 (Mus musculus) (UniProt P22518); assay: Inhibition of recombinant mouse GST-fused CLK1 expressed in Escherichia coli at 10 uM using RS peptide as substrate after 30 mins in presence of ATP by scintillation counting method relative to control
HCT-15 [19] = assay: Cytotoxicity against human HCT15 cells by MTT assay; assay type: functional, cell-based
MDA-MB-468 [20] = assay: Growth inhibition of human MDA-MB-468 cells at 100 uM by MTT assay relative to control; assay type: functional; conditions: read-out: GI
MIA PaCa-2 [21] = assay: Cytotoxicity against human MIAPaCa2 cells by MTT assay; assay type: functional, cell-based
MDA-MB-468 [22] = assay: Cytotoxicity against human MDA-MB-468 cells by MTT assay; assay type: functional, cell-based
MCF7 [23] = assay: Cytotoxicity against human MCF7 cells by MTT assay; assay type: functional, cell-based
MDA-MB-231 [24] = assay: Cytotoxicity against human MDA-MB-231 cells by MTT assay; assay type: functional, cell-based
A549 [25] = assay: Growth inhibition of human A549 cells at 100 uM by MTT assay relative to control; assay type: functional; conditions: read-out: GI
PANC-1 [26] = assay: Cytotoxicity against human PANC1 cells by MTT assay; assay type: functional, cell-based
[27] = molecular target: Dual specificity tyrosine-phosphorylation-regulated kinase 1A (Homo sapiens) (UniProt Q13627); assay: Inhibition of recombinant full length human GST-fused DYRK1A expressed in Escherichia coli at 10 uM using RS peptide as substrate after 30 mins in presence of ATP by scintillation counting method relative to control
MIA PaCa-2 [28] = assay: Growth inhibition of human MIAPaCa2 cells at 100 uM by MTT assay relative to control; assay type: functional; conditions: read-out: GI
MCF7 [29] = assay: Growth inhibition of human MCF7 cells at 100 uM by MTT assay relative to control; assay type: functional; conditions: read-out: GI
PANC-1 [30] = assay: Growth inhibition of human PANC1 cells at 100 uM by MTT assay relative to control; assay type: functional; conditions: read-out: GI
[31] = Inhibition of porcine brain CK1-delta/epsilon using CSK peptide as substrate after 30 mins in presence of ATP by scintillation counting method; set-up: species or system Sus scrofa

Chain of Cyclin-dependent kinase 5/CDK5 activator 1 (Homo sapiens) (Q00535 whole entry): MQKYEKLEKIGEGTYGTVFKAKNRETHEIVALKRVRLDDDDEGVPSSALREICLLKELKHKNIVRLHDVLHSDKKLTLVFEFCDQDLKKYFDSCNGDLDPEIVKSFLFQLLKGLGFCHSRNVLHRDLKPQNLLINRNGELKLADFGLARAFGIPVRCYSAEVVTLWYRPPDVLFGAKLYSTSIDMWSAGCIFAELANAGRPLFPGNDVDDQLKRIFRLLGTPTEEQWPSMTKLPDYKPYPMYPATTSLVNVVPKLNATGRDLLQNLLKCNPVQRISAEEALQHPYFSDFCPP
Chain of Cyclin-dependent kinase 5/CDK5 activator 1 (Homo sapiens) (Q15078 99-307 partner limits assumed): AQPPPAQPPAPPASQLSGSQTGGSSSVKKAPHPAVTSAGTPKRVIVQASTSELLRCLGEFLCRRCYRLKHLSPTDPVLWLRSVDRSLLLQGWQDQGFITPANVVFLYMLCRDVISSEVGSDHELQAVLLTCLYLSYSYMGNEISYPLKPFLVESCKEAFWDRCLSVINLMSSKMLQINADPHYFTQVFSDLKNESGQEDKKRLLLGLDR
Chain of Dual specificity protein kinase CLK1 (P22518 whole entry, the tested form may be a part): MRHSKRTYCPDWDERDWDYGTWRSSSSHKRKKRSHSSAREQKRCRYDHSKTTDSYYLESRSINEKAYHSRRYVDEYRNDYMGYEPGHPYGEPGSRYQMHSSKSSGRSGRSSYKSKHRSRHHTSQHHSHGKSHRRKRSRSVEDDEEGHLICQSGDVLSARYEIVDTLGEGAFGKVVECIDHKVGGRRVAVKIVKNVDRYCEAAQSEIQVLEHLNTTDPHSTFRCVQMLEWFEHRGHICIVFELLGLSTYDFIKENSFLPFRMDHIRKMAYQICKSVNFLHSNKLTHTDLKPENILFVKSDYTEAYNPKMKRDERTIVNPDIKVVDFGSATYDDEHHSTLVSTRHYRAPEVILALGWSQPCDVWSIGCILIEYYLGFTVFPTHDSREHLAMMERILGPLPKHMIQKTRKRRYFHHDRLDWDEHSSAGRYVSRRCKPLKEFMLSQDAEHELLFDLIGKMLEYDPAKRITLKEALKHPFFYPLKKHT
Chain of Dual specificity protein kinase CLK1 (Mus musculus) (P22518 whole entry, looked up, the tested form may be a part): as the sequence (P22518 whole entry, the tested form may be a part) above

With `COc1cc2ncnc(Nc3cc(O)[nH]n3)c2cc1OC` the IC50 (ZR-75-1 [1]) was > 100 µM, the inhibition [2] was > 50% and the inhibition (Asteroidea) was > 50%. The inhibition of growth at 100 µM (DU-145) was > 50%, the inhibition of growth at 100 µM (BT-20 [3]) was > 50% and the inhibition at 100 µM [4] was > 50%. For the same compound, the IC50 (A549 [5]) was 74.9 µM, the inhibition [6] was > 50% and the inhibition of growth at 100 µM (MDA-MB-231 [7]) was > 50%. For the same compound, the inhibition [8] was > 50%, the IC50 (ZR-75-30 [9]) was > 100 µM and the IC50 [10] was > 10 µM. For the same compound, the IC50 (BT-20 [11]) was > 100 µM, the inhibition of growth at 100 µM (ZR-75-1 [12]) was > 50% and the IC50 (CDK2/Cyclin A2) was > 10 µM. For the same compound, the inhibition of growth at 100 µM (ZR-75-30 [13]) was > 50%, the IC50 [14] was > 10 µM and the inhibition of growth at 100 µM (HCT-15 [15]) was > 50%. The inhibition [16] was > 50%, the IC50 [17] was > 10 µM and the IC50 (HEK293) was 69.5 µM. The inhibition (Sus scrofa) was > 50%, the inhibition [18] was > 50% and the IC50 (HCT-15 [19]) was > 100 µM. For the same compound, the inhibition of growth at 100 µM (MDA-MB-468 [20]) was > 50%, the IC50 (MIA PaCa-2 [21]) was > 100 µM and the IC50 (MDA-MB-468 [22]) was 86.7 µM. The IC50 (MCF7 [23]) was > 100 µM, the IC50 (MDA-MB-231 [24]) was > 100 µM and the inhibition of growth at 100 µM (A549 [25]) was > 50%. The IC50 (PANC-1 [26]) was > 100 µM, the inhibition [27] was > 50% and the inhibition of growth at 100 µM (MIA PaCa-2 [28]) was > 50%. For the same compound, the inhibition of growth at 100 µM (MCF7 [29]) was > 50%, the inhibition of growth at 100 µM (PANC-1 [30]) was > 50% and the IC50 [31] was < 10 µM.
